According to patent US20040162298A1, “Method of treating HIV infection by preventing interaction of CD4 and gp120” (priority 2002, published 2004):

What was measured:
gp120JRFL [1] = test: Biacore biosensor binding to immobilized gp120; parameters: species or system HIV-1; conditions: for Biacore signal on gp120-coated surface: compound at 1.5 μM, FIG. 2
Experimental: GP120JRFL was immobilized on the surface of a CM-chip to a surface density of 12000. Inhibitors prepared in the running buffer was flown over the surface at 30 μl/min. The sensorgram was recorded and normalized against the buffer alone sensorgram, using a Biacore 3000 instrument.
Biacore biosensor evaluation of gp120-inhibitor binding. (See FIG. 2 for results). The selective binding of entry inhibitors with gp120 was evaluated on a Biacore 3000 biosensor. Purified gp120JRFL was immobilized onto the flow cell surface of a CM-5 chip via EDC/NHS activated covalent modification, according to the protocol described by Biacore Inc. (Uppsala, Swiden). The surface density of immobilized gp120 reached 12000-15000 RU. Soluble CD4 and BSA coated surfaces were also immobilized on separate flow cell surfaces as controls.

gp120JRFL [2] = test: Circular dichroism analysis of gp120 conformational change; parameters: species or system HIV-1
Experimental: (§1) CD spectra was collected on a Jasco J-720 spectropolarimeter at ambient temperature. Protein concentration in the sample were kept a ˜1 μM, with the exception of sCD4 (1.8 μM) in 20 mM Tris/150 mM NaCl, pH 8.0. Concentration of compound used in the experiments were as indicated.
(§2) Circular Dichroism (CD) analysis. (Method for FIG. 3 results). The CD spectra of purified gp120JRFL (1.2 μM in 5 mM Tris, pH 8.0/150 mM NaCl) were obtained, in the presence and absence of an inhibitor, on a Jasco J-720 spectropolarimeter at ambient (21-23° C.) temperature. Samples containing varying protein-to-compound mole ratios were placed in a quartz cuvette with a 1-mm pathlength. The molar ellipticity (θ) was monitored between 200 nm and 250 nm as the average of 12-20 scans. Soluble CD4 was used as a negative protein controls. Compound, BMS-066, with no anti-HIV activity (EC50>5 μM) was included as a compound control.

HIV = test: Anti-HIV activity (assay not specified); type: cell-based; conditions: Human immunodeficiency virus 1, quoted in text
sCD4 = target: T1, sCD4 (Homo sapiens, UniProt P01730); test: Circular dichroism analysis, sCD4 negative protein control; conditions: sCD4 1.8 μM, compound 3.5 μM, FIG. 3B
T1 construct: purchased ImmunoDiagnostics, Inc. (Woburn, Mass.)
Experimental: as §1, §2

[3] = test system: HIV-1 single-round infectious reporter virus; test: Anti-HIV single cycle infection assay (luciferase reporter virus, HeLa/CD4/CCR5 cells); type: cell-based; conditions: Human immunodeficiency virus 1, HeLa-CD4/CCR5, 72 h, read-out: Anti-HIV single cycle infection EC50
Experimental: EC50 values show concentration of compound needed to inhibit 50% HIV viral replication.
Single-round infectious reporter virus was produced by co-transfecting human embryonic Kidney 293 cells with an HIV-1 envelope DNA expression vector and a proviral cDNA containing an envelope deletion mutation and the luciferase reporter gene inserted in place of HIV-1 nef sequences (Chen, 1994). Transfections were performed using LipofectAMINE PLUS reagent as described by the manufacturer (Life Technologies, Gaithersburg, Md.). The resulting reporter viruses are then used to infect HeLa/CD4/CCR5 cells in the following manner. Serial diluted compound was added to HeLa/CD4/CCR5 cells plated in 96 well plates at a cell density of 5×10^4 cells per well in 100 μl Dulbecco's Modified Eagle Medium containing 10% fetal Bovine serum. One hundred microliter of single-round infectious reporter virus in Dulbecco's Modified Eagle Medium was then added to the plated cells and compound at a multiplicity of infection (MOI) of 0.01. Samples were harvested 72 hours after infection and viral infection was monitored by measuring luciferase expression from viral DNA in the infected cells using a luciferase reporter gene assay kit as described by the manufacturer.

gp120JRFL/CD4 = gp120JRFL/CD4 (Human immunodeficiency virus 1, UniProt Q75760); test: gp120/CD4 binding assay (ELISA); parameters: species or system HIV-1
Experimental: The effect of BMS-806 on the gp120/CD4 binding. The gp120JRFL in supernatant was captured onto anti-gp120 antibody (D7324) coated plate. The compound and soluble CD4 were added to the plate simultaneously and CD4 bound to gp120 was detected by ELISA using anti-CD4 antibody OKT4 as a primary antibody and the secondary antibody goat-anti-mouse-peroxidase conjugate. Value are the means±S.E.M which represent multiple separate experiments.
IC50 values show concentration of compound needed to inhibit 50% of binding of gp120 and CD4.
The gp120 capturing ELISA methods was derived from Moore et al (42). Briefly, the 96 well assay plates (Immulon 4, Dynatech Technologies Inc. Chantilly, Va.) were coated overnight at 4° C. with 100 μl per well of 10 ug/ml D7324 solution in 100 mM bicarbonate buffer (pH9.6). The antibody-coated plate was washed twice with TBS (20 mM Tris-HCl, 500 mM NaCl, pH7.5). All wells were blocked with 100 μl of 3% BSA in TBS for ½ hour at room temperature. Excess BSA was removed with three TBS washes. Gp120 (purified or in supernatant) were diluted in buffer C (50 mM Tris-HCl, pH 7.5, 100 mM NaCl, 1% BSA) and added to D7324 coated plate(s) at 100μl/well. After incubating at 37° C. for 2 hours, plate(s) was washes three times with Buffer (20 mM Tris-HCl, 500 mM NaCl, 0.05% Tween-20, pH7.5) and the bound gp120 was detected by Anti-gp120-peroxidase conjugate (Cross-reactive, ImmunoDiagnostics, Inc) at a final dilution of 1:1000 in BufferC. Bound antibody-peroxidase conjugates were detected with TMB solution (Pierce) and the optical density was measured at 450 nm. Known concentration of the purified gp120IIIB (ABI) were used to generate a standard curve for gp120 quantitation.
The assay is similar to the gp120 capturing ELISA method described above with minor modifications.(43). After coating gp120 onto the plates, sCD4 was added to the plate at a final concentration of 200 ng/ml for one hour at room temperature. […] After washing with BufferB, 100 μl of TMB solution was added and the optical density was read at 450 nm.

HIV-1 JRFL = test: Activity against laboratory adapted HIV-1 strain JRFL; type: cell-based; conditions: Human immunodeficiency virus 1, CCR5
Experimental: (§3) Viruses and cells: (Method for Table 2 results). T-tropic (X4) strains of laboratory adapted HIV-1 were amplified in MT-2 cells and titered using a virus yield assay (17). The laboratory adapted M-tropic (R5) viruses were grown in macrophages or PM1 cells and p24 ELISA assay was used to detect the virus. The TCID50/ml (tissue culture infectious dose) was calculated by the method of Spearman-Karber. Titration of viral stocks and assaying for compound sensitivity were carried out in the cell lines the viruses were originally amplified in. The 50% inhibitory concentration (EC50) was calculated by using the exponential form of the median effect equation where (Fa)=1/[1+(ED50/drug conc.)^m] (17).

HIV-1 RF = test: Activity against laboratory adapted HIV-1 strain RF; type: cell-based
Experimental: as §3

HIV-1 Bru = test: Activity against laboratory adapted HIV-1 strain Bru; type: cell-based; conditions: Human immunodeficiency virus 1
Experimental: as §3

HIV-1 SF-2 = test: Activity against laboratory adapted HIV-1 strain SF-2; type: cell-based; conditions: Human immunodeficiency virus 1
Experimental: as §3

HIV-1 IIIB = test: Activity against laboratory adapted HIV-1 strain IIIB; type: cell-based; conditions: Human immunodeficiency virus 1, IIIB
Experimental: as §3

HIV-1 A0-18 = test: Activity against laboratory adapted HIV-1 strain A0-18; type: cell-based; conditions: Human immunodeficiency virus 1
Experimental: as §3

HIV-1 NL4-3 = test: Activity against laboratory adapted HIV-1 strain NL4-3; type: cell-based; conditions: Human immunodeficiency virus 1, NL43
Experimental: as §3

HIV-1 Bal = test: Activity against laboratory adapted HIV-1 strain Bal; type: cell-based; conditions: Human immunodeficiency virus 1, BAL, CCR5, Virus Bal
Experimental: as §3

HIV-1 SF-162 = test: Activity against laboratory adapted HIV-1 strain SF-162; type: cell-based; conditions: Human immunodeficiency virus 1, CCR5
Experimental: as §3

[4] = test system: laboratory strains of B subtype HIV-1; test: Activity against panel of laboratory strains of B subtype HIV-1; type: cell-based; conditions: Human immunodeficiency virus 1, read-out: EC50 values against 11 of the 13 laboratory strains
Experimental: as §3

HIV-1 MN = test: Activity against laboratory adapted HIV-1 strain MN; type: cell-based
Experimental: as §3

HIV-1 LAV = test: Activity against laboratory adapted HIV-1 strain LAV; type: cell-based; conditions: Human immunodeficiency virus 1
Experimental: as §3

gp120JRFL [5] = test: FlashPlate binding of [3H]BMS-853 to gp120, incl. sCD4 competition; parameters: species or system HIV-1; conditions: radioactive inhibitor
Experimental: Interaction of gp120JRFL (wild type) with ^3H-BMS-853. FlashPlate was coated with increase amount of gp120 and constant amount of ^3H-BMS-853 (16.5 nM) in BufferC was added to each well and the binding assay was allowed to proceed as described in material and methods. Points are averages of duplicate or triplicate determinations.
Competition binding of ^3H-BMS-853 binding to gp120 by soluble CD4.(sCD4) ^3H-BMS-853 bound to gp120 in the presence of varying amount of sCD4 was determined as described under material and methods. Points shown were obtained in a signal experiment, performed in duplicate. Data were analyzed with Prism computer program. (GraphPad Software, Inc).
FlashPlate assay. The binding of [^3H]BMS-853 to gp120 was performed on FlashPlate (NEN,SMP200). Coating of gp120 onto FlashPlate was essentially the same as described for gp120 capturing ELISA. After brief washes of gp120 coated FlashPlate with TBS, [^3H]BMS-853 was added to a final concentration of 16.5 nM in BufferC and the plate was kept at room temperature overnight. The plate was washed once with TBS and then counted in TopCount® Microplate Scintillation counter. Varying concentrations of gp120 were used to show the gp120 dose-dependent binding of [^3H]BMS-853 (FIG. 1).

[6] = test system: V1V2V3 loop-deleted gp120JRFL; test: Binding of [3H]BMS-853 to V1V2V3 loop-deleted gp120; parameters: species or system HIV-1; conditions: radioactive inhibitor

## COc1ncc(OC)c2c(C(=O)C(=O)N3CCN(C(=O)c4ccccc4)CC3)c[nH]c12 [BMS-043]
gp120JRFL [1]
  Biacore signal on gp120-coated surface: intermediate signals
gp120JRFL [2]; gp120JRFL 1.2 μM, inhibitor 2.1 μM
  attenuation of the protein CD signal: 40%
HIV
  EC50: 0.8 nM
sCD4
  attenuation of the sCD4 CD signal: no attenuation

## O=C(C(=O)N1CCN(C(=O)c2ccccc2)CC1)c1c[nH]c2ccccc12 [BMS-216]
[3]
  EC50: 200 nM
gp120JRFL/CD4
  IC50: 1800 ± 300 nM

## COc1ccnc2[nH]cc(C(=O)C(=O)N3CCN(C(=O)c4ccccc4)C[C@H]3C)c12 [BMS-806, (R)—N-(benzoyl)-3-methyl-N′-[(4-methoxy-7-azaindol-3-yl)-oxoacetyl]-piperazine]
[3]
  EC50: 0.6 nM
gp120JRFL/CD4
  IC50: 280 nM
HIV-1 JRFL
  EC50: 1.47 nM
HIV-1 RF; Human immunodeficiency virus 1
  EC50: 6.03 µM
HIV-1 RF; virus RF
  blocking of infection: not efficiently blocked
HIV-1 Bru
  EC50: 3.26 nM
HIV-1 SF-2
  EC50: 26.5 nM
HIV-1 IIIB
  EC50: 39.4 nM
HIV-1 A0-18
  EC50: 23.6 nM
HIV-1 NL4-3
  EC50: 2.94 nM
HIV-1 Bal; coreceptor CCR5, host Macrophage
  EC50: 8.4 nM
HIV-1 Bal; coreceptor CCR5, host PM1
  EC50: 15.5 nM
HIV-1 SF-162
  EC50: 3.46 nM
[4]
  EC50: 0.85 to 75.8 nM
gp120JRFL [1]
  Biacore signal on gp120-coated surface: intermediate signals
HIV-1 MN; Human immunodeficiency virus 1, Virus MN, coreceptor CXCR4, host MT-2
  EC50: 844 nM
HIV-1 MN; virus MN
  blocking of infection: not efficiently blocked
HIV
  EC50: 1 nM
HIV-1 LAV
  EC50: 1.98 nM

## COc1ccc(OC)c2c(C(=O)C(=O)N3CCN(C(=O)c4ccccc4)CC3)c[nH]c12 [[^3H]BMS-853]
gp120JRFL [5]
  binding to full-length recombinant gp120JRFL: bind effectively
[6]
  binding to V1V2V3 loop-deleted gp120JRFL: bound significantly less effective

## Cc1ccc(C)c2c(C(=O)C(=O)N3CCN(C(=O)c4ccccc4)CC3)c[nH]c12 [BMS-033]
gp120JRFL [2]; compound at 2 μM, FIG. 3C
  attenuation of the gp120JRFL CD signal: did not cause any attenuation
HIV
  EC50: > 5000 nM

## COc1ccc(OC)c2c(C(=O)C(=O)N3CCN(C(=O)c4ccccc4)CC3)c[nH]c12 [BMS-853]
[3]
  EC50: 0.1 nM
gp120JRFL/CD4
  IC50: 24 ± 9 nM

## COc1cnc(-c2cnc(N(C)C)cn2)c2[nH]cc(C(=O)C(=O)N3CCN(C(=O)c4ccccc4)CC3)c12 [BMS-038]
gp120JRFL [1]; various concentrations
  Biacore response at various concentrations on gp120-coated surface: dose-dependent increase of reflective index
